Test results from US20240400621A1, “PEPTIDES FOR METABOLIC SYNDROME” (ALPARIS, S.A. de C.V., priority 2021, published 2024).
Where two headings read alike, the source gives them in different places. Where no end group is shown, it is not given here.

Key:
IL-1B = test: Circulating IL-1B levels in mice fed a high-fat diet; type: in vivo, mice (C57BL/6JN); conditions: 12 weeks; versus DAG; including SEQ ID NO: 2 at low doses
Experimental: (§1) For all the in vivo testing, male mice of the C57BL/6JN strain between 8 to 10 weeks of age were used, housed in groups of 3 to 5 mice per cage with food and water ad libitum in ventilated racks, and whose microbiota were unified for 4 weeks.
(§2) The mice received either 200 μL of a phosphate buffer solution (PBS) at pH 7.5 (as a vehicle), or 200 μL of the PBS solution, with each of the intragastric treatments daily for 12 weeks. They were fed either a Normal Diet (DN, Harlan, Teklad 2018SX) with 18% of the calories coming from fat, or a High-Fat Diet (DAG, Research Diets, D12491), with 60% of the calories coming from fat. […]
(§3) To determine the effect of the peptides SEQ ID NO: 2 and SEQ ID NO: 3 in attenuating the inflammatory process in adipose tissue, the cellular infiltrate of the adipose tissue of the mice was quantified after they had been fed DAG.

[1] = Body weight of mice on high-fat diet (DAG) with intragastric peptide for 12 weeks; type: in vivo, mice (C57BL/6JN)
Experimental: as §1
(§4) The mice received either 200 μL of a phosphate buffer solution (PBS) at pH 7.5 (as a vehicle), or 200 μL of the PBS solution, with each of the intragastric treatments daily for 12 weeks. They were fed either a Normal Diet (DN, Harlan, Teklad 2018SX) with 18% of the calories coming from fat, or a High-Fat Diet (DAG, Research Diets, D12491), with 60% of the calories coming from fat.
(§5) All the mice were randomly divided into five experimental groups in order to study the effect of SEQ ID NO: 3 and SEQ ID NO: 2 correctly: • Group 1—Mice with DN that received 200 μl of PBS intragastrically. • Group 2—Mice with DAG that received 200 μl of PBS intragastrically. • Group 3—Mice with DAG that received 200 μl of PBS with SEQ ID NO: 3 intragastrically at a dose of: 2.5 μg/mouse. • Group 4—Mice with DAG that received 200 μl of PBS with SEQ ID NO: 2 intragastrically at a dose of 0.6 μg/mouse (high dose). • Group 5—Mice with DAG that received 200 μl of PBS with SEQ ID NO: 2 intragastrically at a dose of 0.2 μg/mouse (low dose).
The animal weights and feed intakes were recorded weekly.
To determine the metabolic status of the animals before starting the experiment, weight, basal glucose levels, glucose tolerance, and insulin resistance were recorded.

hTLR2 = target: T1, hTLR2 (Homo sapiens, UniProt O60603); test: hTLR2 stimulation in HEK-Blue hTLR2 cells (NF-κβ/SEAP reporter, QUANTI-Blue); type: cell-based
T1 construct: expressed in transfected cells; host or cells: HEK-Blue hTLR2 cells
T1 sequence (O60603 21-784): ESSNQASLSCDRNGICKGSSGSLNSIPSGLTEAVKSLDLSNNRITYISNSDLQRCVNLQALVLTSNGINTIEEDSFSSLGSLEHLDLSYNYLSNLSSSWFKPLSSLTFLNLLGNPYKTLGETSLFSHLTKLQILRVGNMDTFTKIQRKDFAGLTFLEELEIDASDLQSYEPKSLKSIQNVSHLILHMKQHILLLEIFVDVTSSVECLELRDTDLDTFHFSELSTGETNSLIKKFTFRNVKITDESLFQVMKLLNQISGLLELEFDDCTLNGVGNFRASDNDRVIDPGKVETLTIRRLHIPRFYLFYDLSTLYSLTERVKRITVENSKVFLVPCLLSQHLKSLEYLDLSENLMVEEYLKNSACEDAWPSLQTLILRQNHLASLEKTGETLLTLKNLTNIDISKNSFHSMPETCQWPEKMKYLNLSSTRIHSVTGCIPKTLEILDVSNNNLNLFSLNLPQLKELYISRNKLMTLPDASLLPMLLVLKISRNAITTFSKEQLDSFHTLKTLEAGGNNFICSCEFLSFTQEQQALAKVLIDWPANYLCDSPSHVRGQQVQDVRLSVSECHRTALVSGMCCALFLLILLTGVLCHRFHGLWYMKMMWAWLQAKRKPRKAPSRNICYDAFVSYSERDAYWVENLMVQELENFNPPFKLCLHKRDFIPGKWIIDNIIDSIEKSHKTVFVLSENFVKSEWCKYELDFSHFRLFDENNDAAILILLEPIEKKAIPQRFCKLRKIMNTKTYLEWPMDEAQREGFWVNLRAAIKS
Experimental: The analysis of the biological activity of the protein of SEQ ID NO. 1 was performed via an in vitro Toll-like receptors (TLRs) recognition assay. The HEK-Blue hTLR2 cell line expressing the hTLR2 receptor was used, whose stimulation activates the NF-Kβ factor, which in turn induces the production of the reporter protein, secreted embryonic alkaline phosphatase (SEAP). The SEAP levels are quantified by a colorimetric method with the reagent QUANTI-Blue and correspond to hTLR2 stimulation levels. The HEK-Blue hTLR2 cell line was thawed and propagated to make a master cell bank. From this bank, a vial was thawed to check the correct growth of the cell line and the absence of mycoplasma contamination. The cells of the thawed vial were propagated to make a working cell bank and continue the subcultures to mount the activity assay of SEQ ID NO. 1. This consisted of a series of tests in which the cellular response was evaluated with different molecules to determine the most suitable conditions for the assay.
The determined EC50 for SEQ ID NO. 1 was 1147±211 ng/ml (35.1±6.4 nM).
The in vitro biological activity of SEQ ID NO:2, SEQ ID NO:3, SEQ ID NO:4, SEQ ID NO: 8, SEQ ID NO:9, SEQ ID NO: 10, SEQ ID NO:11, SEQ ID NO: 12, SEQ ID NO: 13, SEQ ID NO: 14, SEQ ID NO: 15, and SEQ ID NO:16 was tested via the stimulation of hTLR2 in the cultures of HEK-Blue hTLR2 cells in 96-well plates for 24 h. After collecting the supernatant, the plate was incubated with QUANTI-Blue at 37° C. for 1 h, and absorbance was measured at 620 nm.
To determine the EC50, the absorbance was plotted against the logarithm of protein concentration, and the data was adjusted to a dose-response sigmoidal ligand binding model with 4 parameters. The cell culture medium was used as a negative control, and PAM (synthetic triacylated lipopeptide (Pam3CSK4)) was used as a positive control.

mice fed a high-fat diet [2] = test: Glucose tolerance test (GTT) in mice fed a high-fat diet; type: in vivo, mice (C57BL/6JN); conditions: 12 weeks; intragastric daily; SEQ ID NO: 3 2.5 μg/mouse, SEQ ID NO: 2 0.6 or 0.2 μg/mouse
Experimental: as §1, §2
The mice were subjected to fasting for 6 hours, and the baseline glucose values in the blood were determined using glucose test strips and a glucometer (Roche's ACCU-CHECK ACTIVE).
Next, the mice received an intraperitoneal injection of 1.8 mg of glucose per gram of body weight, and the blood glucose values were recorded at 15, 30, 60, and 120 minutes after administration.
FIGS. 19A and 19B show the area under the curve (AUC) of the glucose tolerance test of the mice, measured at week 0 and 12.

insulin = test: Insulin levels (secretion in response to glucose) in mice fed a high-fat diet; type: in vivo, mice (C57BL/6JN); conditions: 12 weeks; versus DAG group
Experimental: as §1, §4, §5
This means that the peptide SEQ ID NO: 3 improves insulin sensitivity, preventing insulin resistance from developing.

leptin = test: Leptin levels in mice fed a high-fat diet; type: in vivo, mice (C57BL/6JN); conditions: 12 weeks; compared to mice fed only DAG
Experimental: as §1, §4
as §5, with “(low dose). […]” for “(low dose).”

TNFα = test: Circulating TNFα levels in mice fed a high-fat diet; type: in vivo, mice (C57BL/6JN); conditions: 12 weeks; versus DAG; including SEQ ID NO: 2 at low doses
Experimental: as §1, §2, §3

mice fed a high-fat diet [3] = test: Insulin resistance test (PRI) in mice fed a high-fat diet; type: in vivo, mice (C57BL/6JN); conditions: 12 weeks; intragastric daily; SEQ ID NO: 3 2.5 μg/mouse, SEQ ID NO: 2 0.6 or 0.2 μg/mouse
Experimental: as §1, §2
The mice were subjected to fasting for 6 hours and the baseline glucose values were determined, as described above. Subsequently, the mice received an intraperitoneal injection of 1 mU of insulin per gram of body weight, and blood glucose values were recorded at 15, 30, 60, and 120 minutes after administration. The area under the curve (AUC) of the insulin resistance test was calculated considering the glucose decrease between time T0 and T15 using the absolute glucose values, as shown in FIGS. 20A and 20B.

adipose tissue = test: Cellular infiltrate / inflammatory process in adipose tissue of mice fed a high-fat diet; type: in vivo, mice (C57BL/6JN)
Experimental: as §1, §4, §5, §3

adiponectin = test: Adiponectin levels in mice fed a high-fat diet; type: in vivo, mice (C57BL/6JN); conditions: 12 weeks; fall induced by DAG
Experimental: as §1, §4
as §5, with “(low dose). […]” for “(low dose).”

IL-6 = IL-6 levels in mice fed a high-fat diet; type: in vivo, mice (C57BL/6JN); conditions: 12 weeks; animals fed DAG
Experimental: as §1, §4, §5

[4] = target: T2, human Toll-like receptor 2 (hTLR2) on HEK-Blue hTLR2 cells (human (printed as hTLR2), UniProt O60603 21-784); test: cell-based or functional assay
T2 sequence (O60603 21-784): as above

[5] = Aggregation during ultrafiltration / buffer change; type: physicochemical
Excerpt: The protein of SEQ ID NO. 1, expressed in recombinant form in this invention, contains a tag of six residues of histidine at the carboxyl terminal end, allowing it to be purified by immobilized metal cation affinity chromatography (IMAC). Purification was initially evaluated with the soluble fractions of the two strains that were used for recombinant production, obtained by enzymatic lysis and sonication. The first approach with the Ni-NTA Agarose resin allowed for the recovery of 6% of the SEQ ID NO. 1 with a purity of 50-80%. An FPLC Ákta Prime chromatographic system and an XK16/20 column packed with 13 mL of Chelating Sepharose Fast Flow-Ni^+2 resin were used for purification. A minimum imidazole concentration of 30 mM was defined in both the sample to be injected and the equilibrium buffer. Elution was performed with 500 mM imidazole at 6.5 mL/min, resulting in a minimum recovery of 80% of SEQ ID No. 1 with 82% purity. The ultrafiltration of the tangential flow of SEQ ID NO. 1 during the chromatography stage, in order to concentrate and change the buffer, negatively impacted protein quality. However, the dialysis of EQ ID NO.
However, the aggregation of SEQ ID NO. […] This was corroborated by the SDSPAGE analysis, in which the remaining protein in the soluble fraction presented fragments of lower molecular weight than that of SEQ ID NO. 1, but greater than 25 kDa. On the other hand, the precipitate turned out to be denatured SEQ ID NO. 1, but not degraded.
Finally, SEQ ID NO. 4 and SEQ ID NO.

[6] = target: T2, human Toll-like receptor 2 (hTLR2) on …; test: cell-based or functional assay; remark: listed apart in the source

## AMNAITGMQDYLFTVNSIRIRNERMMPPPIANPAAAK [SEQ ID NO: 2]
IL-1B
  circulating levels of IL-1B: prevented the increase in the circulating levels of IL-1B
[1]; 0 weeks (initial state), DAG + SEQ ID NO: 2 High dose group
  Average weight: 23.9 grams
[1]; 0 weeks (initial state), DAG + SEQ ID NO: 2 Low dose group
  Average weight: 23.8 grams
[1]; 12 weeks, DAG + SEQ ID NO: 2 High dose (0.6 μg/mouse) intragastric daily
  Average weight: 42 grams
[1]; 12 weeks, DAG + SEQ ID NO: 2 Low dose (0.2 μg/mouse) intragastric daily
  Average weight: 40.2 grams
hTLR2; HEK-Blue hTLR2 cells, 24 h
  concentration from which hTLR2 is (significantly) stimulated: 3.05 nM
  concentration giving the best hTLR2 stimulation: 305 nM
Mice fed a high-fat diet [2]
  glucose tolerance (AUC of GTT) versus DAG group: improved glucose tolerance
insulin
  insulin secretion in response to glucose administration: tendency to decrease insulin secretion
leptin
  leptin secretion: decrease in leptin secretion
TNFα
  circulating levels of TNFα: prevented the increase in the circulating levels
Mice fed a high-fat diet [3]
  insulin sensitivity (AUC of insulin resistance test) versus DAG group: improve insulin sensitivity
Adipose tissue; 12 weeks, versus DAG group
  cellular infiltrate of adipose tissue: prevented the increase in cellular infiltrate induced by DAG
Adipose tissue; SEQ ID NO:2 in high or low doses
  inflammatory process in adipose tissue: attenuate the inflammatory process in adipose tissue
adiponectin
  adiponectin in circulation: tendency to prevent a fall of adiponectin
IL-6
  IL-6 levels: dramatic decrease in IL-6 levels

## SEQ ID NO: 12: peptide generated by proteolysis, obtained with both trypsin and Lys-C (MQLPIETPANNPEESDEADQAPWTPMPLEIAFQGDRESVLK)
hTLR2
  stimulation of hTLR2: do not stimulate hTLR2

## SEQ ID NO: 14: peptide of the Lys-C proteolysate, passes the 5 kDa ultrafiltration membrane (PYMGK)
hTLR2
  stimulation of hTLR2: do not stimulate hTLR2

## SEQ ID NO: 16: peptide of the Lys-C proteolysate, retained at the 10 kDa cutoff (EQVFVQVSLNLVHFNQPK)
hTLR2
  stimulation of hTLR2: do not stimulate hTLR2

B1: protein of SEQ ID NO: 1 (AMUC_1100 of Akkermansia muciniphila without signal peptide, with Xa factor site and histidine tag) (ligand)
chain: MIVNSKRSELDKKISIAAKEIKSANAAEITPSRSSNEELEKELNRYAKAVGSLETAYKPFLASSALVPTTPTAFQNELKTFRDSLISSCKKKNILITDTSSWLGFQVYSTQAPSVQAASTLGFELKAINSLVNKLAECGLSKFIKVYRPQLPIETPANNPEESDEADQAPWTPMPLEIAFQGDRESVLKAMNAITGMQDYLFTVNSIRIRNERMMPPPIANPAAAKPAAAQPATGAASLTPADEAAAPAAPAIQQVIKPYMGKEQVFVQVSLNLVHFNQPKAQEPSEDIEGRHHHHHHDI
[4]
  EC50: 1.15 mg/L
hTLR2; 10 μg/mL, 24 h stimulation of hTLR2, 60 min QUANTI-Blue, with respect to the culture medium
  relative activation of NF-κβ: 16.6%±2.7
[5]
  aggregation in ultrafiltration operations: aggregation
[6]
  EC50: 0.0351 µM

## AMNAITGMQDYLFTVNSIRIRNERMMPPPIANPAAAK [peptide SEQ ID NO: 2]
[6]
  EC50: 0.0249 µM

B2: peptide SEQ ID NO: 4 (amino terminal domain of SEQ ID NO: 1) (peptide)
chain: IVNSKRSELDKKISIAAKEIKSANAAEITPSRSSNEELEKELNRYAKAVGSLETAYKPFLASSALVPTTPTAFQNELKTFRDSLISSCKKKNILITDTSSWLGFQVYSTQAPSVQAASTLGFELKAINSLVNKLAECGLSKFIKVYRPQ
hTLR2; HEK-Blue hTLR2 cells, 24 h
  concentration from which hTLR2 is (significantly) stimulated: 38 nM
hTLR2; maximum concentration tested (305 nM)
  relative response compared to PAM: 101%
[5]
  aggregation in ultrafiltration operations: no visible aggregation
[6]
  EC50: 0.0659 µM
